From PubChem BioAssay (NCI)
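Compound exposure: 48 hours, 5 concentrations, 96-well plates. GI50 is the concentration that inhibits growth by half. Definition used: TGI = concentration required for complete inhibition of growth.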

Tests used:
Experiment in all cases: NCI-60 cell line screen, 48 h; in the data active = GI50 below about 0.43 µM; inactive = the rest
OVCAR-4 ovarian = system: OVCAR-4 ovarian
ACHN renal = system: ACHN renal
SR leukemia = system: SR leukemia
NCI-H460 lung = system: NCI-H460 lung
MALME-3M melanoma = system: MALME-3M melanoma
K-562 leukemia = system: K-562 leukemia
CCRF-CEM leukemia = system: CCRF-CEM leukemia
RXF 393 renal = system: RXF 393 renal

CCCN1C(=O)CN(S(=O)(=O)c2ccc(Cl)cc2)C1=O
> 100 µM: TGI (OVCAR-4 ovarian) | TGI (ACHN renal) | TGI (SR leukemia) | TGI (NCI-H460 lung) | TGI (MALME-3M melanoma) | TGI (K-562 leukemia) | TGI (CCRF-CEM leukemia) | TGI (RXF 393 renal)

O[C@@H]1[C@H](OC2c3ccccc3-c3ccccc32)[C@H](OCc2ccccc2)[C@@H]2OC[C@H]1O2
> 100 µM: TGI (OVCAR-4 ovarian) | TGI (ACHN renal) | TGI (MALME-3M melanoma) | TGI (K-562 leukemia) | TGI (CCRF-CEM leukemia) | TGI (RXF 393 renal)

Cc1ccc2c(c1C)CC1(Cc3ccc(C)c(C)c3C1=O)C2=O (stereo not drawn)
> 100 µM: TGI (OVCAR-4 ovarian) | TGI (ACHN renal) | TGI (SR leukemia) | TGI (NCI-H460 lung) | TGI (MALME-3M melanoma) | TGI (K-562 leukemia) | TGI (CCRF-CEM leukemia)
54.3 µM: TGI (RXF 393 renal)

COc1ccc(/C=C2\C[C@H]3[C@@H]4CC=C5C[C@@H](O)CC[C@]5(C)[C@H]4CC[C@]3(C)\C2=N\O)cc1
76.6 µM: TGI (MALME-3M melanoma)
> 100 µM: TGI (OVCAR-4 ovarian) | TGI (ACHN renal) | TGI (NCI-H460 lung) | TGI (CCRF-CEM leukemia) | TGI (RXF 393 renal)
19 µM: TGI (SR leukemia)
45.9 µM: TGI (K-562 leukemia)

Cc1ccc2c(=O)cc(-c3cc(C)sc3C)[nH]c2n1
> 24.4 µM: TGI (RXF 393 renal)
> 100 µM: TGI (OVCAR-4 ovarian) | TGI (ACHN renal) | TGI (NCI-H460 lung) | TGI (MALME-3M melanoma) | TGI (K-562 leukemia)
> 86.3 µM: TGI (SR leukemia)
> 25.5 µM: TGI (CCRF-CEM leukemia)

COC(=O)C1=C(OC)C(=P2(c3ccccc3)CC(c3ccccc3)=C2c2ccccc2)C(C(=O)OC)=C1C(=O)OC (stereo not drawn)
> 81.7 µM: TGI (NCI-H460 lung)
> 100 µM: TGI (OVCAR-4 ovarian) | TGI (ACHN renal) | TGI (RXF 393 renal)
4.74 µM: TGI (CCRF-CEM leukemia)
> 78.2 µM: TGI (MALME-3M melanoma)

CCOc1ccc(NC(=O)C(=O)C(/C(=N/N)C(=O)OC)c2nc3ccc([N+](=O)[O-])cc3[nH]c2=O)cc1 (stereo not drawn)
> 100 µM: TGI (OVCAR-4 ovarian) | TGI (ACHN renal) | TGI (SR leukemia) | TGI (NCI-H460 lung) | TGI (MALME-3M melanoma) | TGI (K-562 leukemia) | TGI (CCRF-CEM leukemia) | TGI (RXF 393 renal)

COC(=O)/C(=N\N)C(C(=O)C(=O)Nc1cc(Cl)ccc1Cl)c1nc2ccc([N+](=O)[O-])cc2[nH]c1=O (stereo not drawn)
> 100 µM: TGI (OVCAR-4 ovarian) | TGI (ACHN renal) | TGI (NCI-H460 lung) | TGI (MALME-3M melanoma) | TGI (K-562 leukemia) | TGI (CCRF-CEM leukemia) | TGI (RXF 393 renal)

Cc1cccc(C)c1NC(=O)C(=O)CC(=O)c1sc(Nc2c(C)cccc2C)nc1C
> 100 µM: TGI (OVCAR-4 ovarian) | TGI (ACHN renal) | TGI (NCI-H460 lung) | TGI (K-562 leukemia) | TGI (CCRF-CEM leukemia) | TGI (RXF 393 renal)

COC(=O)/C=C1\C(CO[Si](C)(C)C(C)(C)C)OC(n2ccc(=O)[nH]c2=O)C1O (stereo not drawn)
> 65.5 µM: TGI (ACHN renal)
26.1 µM: TGI (CCRF-CEM leukemia)
26.4 µM: TGI (SR leukemia)
> 100 µM: TGI (OVCAR-4 ovarian)
37.8 µM: TGI (NCI-H460 lung)
32.5 µM: TGI (RXF 393 renal)
> 95.4 µM: TGI (K-562 leukemia)

C=C1CC[C@@H]2[C@](C)(COC(=O)CCC(=O)OC)CCC[C@@]2(C)[C@@H]1CCC1=CC(=O)OC1
58.8 µM: TGI (CCRF-CEM leukemia)
51.4 µM: TGI (SR leukemia)
> 100 µM: TGI (OVCAR-4 ovarian) | TGI (ACHN renal) | TGI (NCI-H460 lung) | TGI (MALME-3M melanoma) | TGI (K-562 leukemia)

COC(=O)c1ccc(CCC2=CC(=O)C=CC2=O)cc1
38.4 µM: TGI (OVCAR-4 ovarian)
2 µM: TGI (CCRF-CEM leukemia)
20.4 µM: TGI (ACHN renal)
5.82 µM: TGI (SR leukemia)
35.9 µM: TGI (NCI-H460 lung)
25.3 µM: TGI (RXF 393 renal)
8.9 µM: TGI (K-562 leukemia)

COC(=O)C1CC2CC1C1C2SC(F)(F)C1(F)F (stereo not drawn)
> 100 µM: TGI (OVCAR-4 ovarian) | TGI (ACHN renal) | TGI (SR leukemia) | TGI (NCI-H460 lung) | TGI (MALME-3M melanoma) | TGI (RXF 393 renal)

CCc1nc(N)nc(N)c1-c1ccc(N2CCOCC2)c(N=[N+]=[N-])c1
> 100 µM: TGI (OVCAR-4 ovarian) | TGI (ACHN renal) | TGI (NCI-H460 lung) | TGI (CCRF-CEM leukemia) | TGI (RXF 393 renal)
> 80.9 µM: TGI (SR leukemia)
> 90.6 µM: TGI (K-562 leukemia)

CCOC(=O)c1c(Cl)c2c(n1Cc1ccccc1)-c1oncc1CCC2
8.24 µM: TGI (SR leukemia)
inactive: GI50 (ACHN renal) 5.89 µM | GI50 (SR leukemia) 1.8 µM | GI50 (NCI-H460 lung) 3.62 µM | GI50 (MALME-3M melanoma) 3.68 µM | GI50 (K-562 leukemia) 3.68 µM | GI50 (CCRF-CEM leukemia) 2.21 µM
> 100 µM: TGI (ACHN renal) | TGI (NCI-H460 lung) | TGI (MALME-3M melanoma) | TGI (K-562 leukemia) | TGI (CCRF-CEM leukemia)

N#CCc1nc(-c2cc3ccccc3oc2=O)cs1
> 100 µM: TGI (OVCAR-4 ovarian) | TGI (ACHN renal) | TGI (SR leukemia) | TGI (NCI-H460 lung) | TGI (MALME-3M melanoma) | TGI (K-562 leukemia) | TGI (CCRF-CEM leukemia) | TGI (RXF 393 renal)

CC(C)(C)n1c(=O)n2c(-c3ccccc3)c(-c3ccccc3)n2c1=O
> 100 µM: TGI (OVCAR-4 ovarian) | TGI (ACHN renal) | TGI (NCI-H460 lung) | TGI (MALME-3M melanoma) | TGI (K-562 leukemia) | TGI (RXF 393 renal)

COc1ccc(NC(=S)c2ccc([N+](=O)[O-])o2)cc1
5.01 µM: TGI (RXF 393 renal)
5.72 µM: TGI (NCI-H460 lung)
7.83 µM: TGI (MALME-3M melanoma)
8.66 µM: TGI (CCRF-CEM leukemia)
3.07 µM: TGI (OVCAR-4 ovarian)
8.63 µM: TGI (SR leukemia)
5.42 µM: TGI (ACHN renal)
7.55 µM: TGI (K-562 leukemia)

COc1ccc(OC/C(N)=N/NC(=O)c2ccncc2)cc1
> 100 µM: TGI (OVCAR-4 ovarian) | TGI (ACHN renal) | TGI (NCI-H460 lung) | TGI (MALME-3M melanoma) | TGI (K-562 leukemia) | TGI (CCRF-CEM leukemia) | TGI (RXF 393 renal)

CCOC(=O)c1cn(-c2ccc([N+](=O)[O-])cc2)c(=S)n2c1nc1ccccc12
> 100 µM: TGI (OVCAR-4 ovarian) | TGI (ACHN renal) | TGI (SR leukemia) | TGI (NCI-H460 lung) | TGI (K-562 leukemia) | TGI (CCRF-CEM leukemia) | TGI (RXF 393 renal)

Cc1cn([C@H]2C[C@@H](N3C(=O)c4ccccc4C3=O)[C@@H](CO[Si](C)(C)C(C)(C)C)O2)c(=O)[nH]c1=O
52 µM: TGI (RXF 393 renal)
> 100 µM: TGI (OVCAR-4 ovarian) | TGI (ACHN renal) | TGI (SR leukemia) | TGI (NCI-H460 lung) | TGI (MALME-3M melanoma) | TGI (K-562 leukemia) | TGI (CCRF-CEM leukemia)

CN(/N=C/c1ccccn1)C1=NCCN1
> 100 µM: TGI (OVCAR-4 ovarian) | TGI (ACHN renal) | TGI (SR leukemia) | TGI (NCI-H460 lung) | TGI (MALME-3M melanoma) | TGI (K-562 leukemia) | TGI (CCRF-CEM leukemia) | TGI (RXF 393 renal)

NCCc1ccc(S(=O)(=O)O)cc1[N+](=O)[O-]
> 100 µM: TGI (OVCAR-4 ovarian) | TGI (ACHN renal) | TGI (SR leukemia) | TGI (NCI-H460 lung) | TGI (MALME-3M melanoma) | TGI (K-562 leukemia) | TGI (CCRF-CEM leukemia) | TGI (RXF 393 renal)

Clc1ccc(C(OCn2ccnc2)c2nc3ccccc3[nH]2)c(Cl)c1 (stereo not drawn)
> 100 µM: TGI (OVCAR-4 ovarian) | TGI (ACHN renal) | TGI (NCI-H460 lung) | TGI (MALME-3M melanoma) | TGI (K-562 leukemia) | TGI (CCRF-CEM leukemia)

Cc1nc2ccc(S(=O)(=O)O)cc2c(=O)n1-c1ccc(C(=O)NN2C(=O)C(Cl)C2c2cccs2)cc1 (stereo not drawn)
> 100 µM: TGI (ACHN renal) | TGI (SR leukemia) | TGI (NCI-H460 lung) | TGI (MALME-3M melanoma) | TGI (K-562 leukemia) | TGI (CCRF-CEM leukemia) | TGI (RXF 393 renal)
79.7 µM: TGI (OVCAR-4 ovarian)

COc1cc(CCN)c(OC)c(OC)c1
> 100 µM: TGI (OVCAR-4 ovarian) | TGI (ACHN renal) | TGI (SR leukemia) | TGI (NCI-H460 lung) | TGI (MALME-3M melanoma) | TGI (K-562 leukemia) | TGI (CCRF-CEM leukemia) | TGI (RXF 393 renal)
